In patent publication US20090247495A1, “CU[…] AND USES THEREOF” (priority 2007, published 2009):
“Also recorded” adds a separate entry of the source.

Assays:
[1] = test system: Raf/Mek/Erk pathway; assay: Western blot of phosphorylated c-Raf, Mek1/2, Erk1/2 and Elk-1 in K562 cells; assay type: cell-based, human; settings: 50 μM
Method: K562 leukemia cells were serum starved for 18 hours prior to cucurbitacin B treatment. The cells were incubated at a 75-mm culture flask filled with 10 ml growth medium (RPMI with 10% FBS and 1% PS) at the cell density of 1×10^5 cells/ml in the presence or absence of cucurbitacin B for various time intervals. The drug treatment were terminated by centrifugation at 1500 rpm for 5 minutes and the cells were rinsed twice with phosphate-buffered saline and lysed at 4° C. in a lysis buffer containing 50 mM Tris-HCl, pH7.5, […], 5 mM EDTA, 40 mM NaP2O7, 1% Triton X-100, 1 mM dithiothreitol, 200 μM Na3VO4, 100 μM phenylmethysufonyl fluoride, 2 μg/ml leupeptin, 4 μg/ml aprotinin and 0.7 μg/ml pepstatin. The insoluble protein lysate were removed by centrifugation for 10 minutes at 13000 rpm. Fifteen micrograms of protein lysate was resolved using SDS-polyacryamide gel electrophoresis (PAGE) (usually 8%-12% polyacrylamide gel) and then subjected to western blot anaylsis. Western blots were performed with antibodies specific for phosphorylated and total Stat3, c-Raf, Mek, and Erk. […]
In order to further investigate if cucurbitacin B block the Stat3 activation is truly through Erk pathway in K562 cells, the ability of cucurbitacin B to inhibit the Ras/Raf/Mek/Erk pathway was determined by measuring Ras-GTP, phosphorylation of c-Raf, Mek1/2, Erk1/2 and Elk-1 in K562 cells. […]

[2] = Gross and microscopic examination of organs of treated mice; assay type: in vivo, nude mice; settings: i.p. 1 mg/kg three times a week, six weeks
Method: One million human MDA-MB-231 breast cancer cells/Matrigel (vol 1:1) were inoculated isotopically into the breasts of nude mice. The mice received intraperitoneal injections of 1 mg/ml of cucurbitacin B 3 times a week starting on the day after inoculation of the cells. The longitudinal and the transverse diameter, and the height were measured once a week. The volume was calculated by multiplying these elements, and the relative tumor size was determined by dividing the product by the initial volume. After 6 weeks, the mice were sacrificed to weigh the dissected tumors. At that moment, blood was taken for analysis, where organs and tumors were inspected, dissected, fixed and stained with hematoxylin-eosin and/or Ki-67. Data were expressed as mean±SD. Statistical analysis was performed by student's t test.
Six weeks after i.p. treatment with either vehicle or cucurbitacin B 1 mg/kg three times a week, mice were euthanized and tumors were observed and weighed. Results represented the mean and SD of 9 treated and 9 control tumors. Statistical analysis was performed by student's t test.

[3] = test system: HL60 and U937 cells; assay: Cell cycle analysis by flow cytometry, myeloid leukemia cells; assay type: cell-based, human; settings: 96 hours
Method: HL60 and U937 cells were incubated with vary doses of cucurbitacin B for 96 hours at 37° C. For analysis of cell differentiaion, cells were then incubated with either R-phycoerythrin-conjugated murine anti-human CD11b antibody (DAKO, Carpinteria, Calif.). For analysis of cell cycle, cells were washed and fixed with chilled methanol, and incubated on ice for 30 minutes prior to staining with propidium iodide. All analyses were performed by flow cytometry.

[4] = test system: Human GBM cell lines U87, T98G, U118, U343, U373; assay: MTT cell cytotoxicity assay, glioblastoma multiforme cell lines; assay type: cell-based; settings: 48 hours, range over the cell lines
Method: Human GBM cell lines U87, T98G, U118, U343, U373 cell lines were maintained in Dulbecco's modified Eagle's medium (Gibco, BRL) with 10% fetal calf serum (Gemini Bio-Products, Calabasas, Calif., USA), 10 U/ml penicillin G and […] streptomycin. They were all incubated at 37° C. in 5% CO2 atmosphere.
The cytotoxic effect of CuB on these cancer cell lines were determined using MTT (3-[4,5-dimethylthiazol-2-yl]-2,5-diphenyl tetrazolium bromide) labeled cell cytotoxicity assay. A total of 1×10^4 cells were seeded into a 96-well plate for 24 hours prior to cucurbitacin B (CuB) treatment. They were then treated with different dosages of CuB for 48 hours. After the treatment, 20 μl of MTT (5 mg/ml) was added to each well and incubated for 4 hrs. Then the medium was discarded and 100 μl of dimethyl sulfoxide was added. The absorbance at 570 nm was then measured by a microplate reader and the 50% inhibition concentration (IC50) were obtained. Results for untreated control cells were set as 100%, with remaining data shown as a percentage of control. Data represented the mean±standard error of triplicate samples.

[5] = test system: Panc-1 and SW cells; assay: Cell cycle analysis by flow cytometry, pancreatic cells; assay type: cell-based, human; settings: different periods
Method: Panc-1 and SW cells were incubated with cucurbitacin B for different periods at 37° C. At specific time points, cells were washed and fixed with chilled 80% ethanol, and incubated on ice for 30 min. prior to staining with propidium iodide. All analyses were performed by flow cytometry.

[6] = test system: MAPK signaling pathway; assay: Western blot of MAPK / cell cycle signaling proteins in HL60 cells; assay type: cell-based, human
Method: Control cells, as well as cells treated with cucurbitacin B or cucurbitacin D, were harvested and collected by centrifugation. Whole cell extracts were then prepared by lysing the cells using 4% sodium dodecyl sulfate (SDS) gel sample buffer. Cell extracts were boiled for 10 min and chilled on ice, subjected to 12% SDS-polyacrylamide gel electrophoresis, and transferred to a PVDF membrane. Each membrane was cut into to two pieces with one piece incubated at 4° C. overnight with antibodies against cell cycle signaling proteins, such as ERK, phosphorlated-ERK, p38, phosphorlated-p38, Cyclin E, Retinoblastoma, phosphalated-Retinoblastoma and c-myc, and apoptotic protein (PARP). β-actin was used as a control for protein loading. All antibodies were obtained from Cell signaling Technologies (USA). Then membranes were incubated at 37° C. for 1 h with secondary antibody conjugated with peroxidase, and the signal was detected using chemiluminescence detection reagent. The relative protein level was calculated as the ratio of the optical density of the protein of interest to that of β-actin.

CC(=O)OC(C)(C)/C=C/C(=O)[C@](C)(O)C1[C@H](O)C[C@@]2(C)C3CC=C4C(C[C@H](O)C(=O)C4(C)C)[C@]3(C)C(=O)C[C@]12C (stereo partly shown) [cucurbitacin B]
activation (phosphorylation) of c-Raf, Mek1/2, Erk1/2 and Elk-1 ([1]; 5 minutes treatment): significantly inhibited; also recorded: significant disruption | inhibition of the Raf/Mek/Erk pathway ([1]; 4 hours): Complete inhibition | gross and microscopic examination of the liver, spleen, and peritoneum [2]: no significant difference | cell cycle effect [3]: significant S-phase cell cycle arrest | GI50 [4]: 50 to 100 nM | cell cycle effect [5]: arrest at G1 and/or G2 phase | regulation of ERK, cyclin E, retinoblastoma phosphorylation and c-myc [6]: ERK activation, followed by cyclin E down-regulation, inhibition of retinoblastoma's phosphorylation, and ultimately down-regulation of c-myc
